Results from patent US11666558B2, “Methods of treating intraocular pressure with activators of Tie-2” (EyePoint Pharmaceuticals, Inc., priority 2015, dated 2023).
Read-outs that look alike come from different tables or passages of the source. Values belong to the compound of their own block, whether it stands above or below them.

Tests used:
[1] = Plasma concentrations and pharmacokinetic parameters after topical ocular, subcutaneous and intravitreal administration; format: in vivo, New Zealand White rabbits; details: plasma, plasma; for AUC(0-t): read-out: AUClast (± SE); for concentration at 0.5 hr: 0.50 hr
Description: To measure the concentration of Compound 1 in plasma and ocular tissues following topical ocular, subcutaneous, and intravitreal administration, New Zealand White rabbits were administered Compound 1, and plasma and ocular samples were collected at pre-determined time points. Compound 1 formulations were prepared fresh on each day of dosing.
New Zealand White rabbits weighing 2.5 to 3.5 kg were used on this study. Rabbits were housed one per cage. Animals were not fasted and only healthy animals with no ocular illness were used. Two rabbits per group were sacrificed at each of four ocular tissue sampling time points for a total of eight rabbits per group.
Animals were anesthetized for ocular (topical) and intravitreal dosing following the 12IA7 IACUC protocol. Each rabbit received a bolus dose of test formulation either via topical ocular administration 3 times daily on Days 1 and 2 (at 0, 6, and 12 hours), and once on Day 3 (at 0 hours) into both eyes; via intravitreal administration into both eyes once on Day 1 (at 0 hours); or via subcutaneous administration 2 times daily on Days 1 and 2 (at 0 and 8 hours) and once daily on Day 3 (at 0 hours). Doses were given within an approximately 1 hour window each day where applicable.
Each blood sample was collected on Day 3 post dose at pre-determined time points from the rabbits via an ear vessel and placed into chilled polypropylene tubes containing sodium heparin as an anticoagulant. Samples were spun by centrifuge at 4° C. and 3,000×g for 5 minutes. Samples were maintained chilled throughout processing. Each plasma sample was placed on dry ice and stored in a freezer at −60° C. to −80° C. pending bioanalysis.
An LC-MS/MS method was developed for the determination of Compound 1 in rabbit aqueous tissues (plasma, aqueous and vitreous humor) and solid ocular tissue samples. A pre-study standard curve was analyzed to determine the specificity, range, and lower limit of quantitation of the method. Plasma and tissue homogenate study samples were extracted and analyzed. All the samples were treated identically to the standards.
One eight-point standard curve was used in each analytical batch. To be accepted, each batch must have had at least five of eight standards with accuracy within ±20% of nominal, except at the lower limit of quantification (LLOQ), where ±25% was acceptable.
Pharmacokinetic parameters were calculated from the time course of the plasma concentration. The maximum plasma concentration (Cmax) and time to the maximum plasma drug concentration (Tmax) were the observed values for each concentration-time profiles. The area under the plasma drug concentration-time curve (AUClast, with last being from time 0 to the last quantifiable point) was calculated using the trapezoidal formula. The mean residence time MRTlast was calculated as a ratio of AUMClast (area under the first movement curve) to AUClast.

[2] = Ocular abnormalities in the ocular pharmacokinetics study; format: in vivo, New Zealand White rabbits; details: all dose groups (topical ocular, subcutaneous, intravitreal)
Description: Pre-screening clinical ophthalmic exams were done prior to study (includes slit-lamp biomicroscopy and indirect ophthalmoscopy). Ocular findings were scored using the McDonald-Shadduck Score System, and only animals that scored zero in all categories were used in the study.
Concentration versus time data is plotted in FIGS. 3-16. All data are expressed as ng/g of the free drug. Samples that were below the limit of quantitation (0.2 ng/mL) were not used in the calculation of averages.

[3] = New Zealand White, rabbit, other: intravitreal, 1.54 mg/kg, intravitreal 2.5 mg/eye (~1.54 mg/kg), suspension
[4] = New Zealand White, rabbit, other: intravitreal, 2.5 mg, intravitreal 2.5 mg/eye (~1.54 mg/kg), suspension
[5] = New Zealand White, rabbit, other: intravitreal, 2.5 mg/eye, intravitreal 2.5 mg/eye (~1.54 mg/kg), suspension, read-out: plasma Average
[6] = New Zealand White, rabbit, other: intravitreal, 2.5 mg/eye, intravitreal 2.5 mg/eye (~1.54 mg/kg), suspension, read-out: plasma Conc., individual rabbit
[7] = New Zealand White, rabbit, sc, 5 mg/kg, subcutaneous 5 mg/kg/dose, suspension
[8] = New Zealand White, rabbit, subcutaneous, 5 mg/kg/dose, subcutaneous 5 mg/kg/dose, suspension, read-out: plasma Average
[9] = New Zealand White, rabbit, subcutaneous, 5 mg/kg/dose, subcutaneous 5 mg/kg/dose, suspension, read-out: plasma Conc., individual rabbit
[10] = intravitreal suspension, normalized by 1.54 mg/kg
[11] = subcutaneous suspension, normalized by 5 mg/kg

AUC(0-inf) [1, 3]: 0.746 µg·h/mL
Cmax [1, 3]: 0.0253 µg/mL
MRT last [1, 3]: 19.1 h
half-life [1, 3]: 16.5 h
AUC(0-t) [1, 3]: 0.707 µg·h/mL
Tmax ([1]; New Zealand White, rabbit, other: intravitreal, 1.54 mg/kg, intravitreal 2.5 mg/eye (~1.54 mg/kg), suspension, read-out: tmax): 1 h
AUC(0-inf) [1, 4]: 0.746 µg·h/mL
Cmax [1, 4]: 0.0253 ± 0.0093 µg/mL
MRT last [1, 4]: 19.1 h
half-life [1, 4]: 16.5 h
AUC(0-t) [1, 4]: 0.707 ± 0.0531 µg·h/mL
Tmax ([1]; New Zealand White, rabbit, other: intravitreal, 2.5 mg, intravitreal 2.5 mg/eye (~1.54 mg/kg), suspension, read-out: tmax): 1 h
concentration at 1 h ([1]; New Zealand White, rabbit, other: intravitreal, 2.5 mg/eye, intravitreal 2.5 mg/eye (~1.54 mg/kg), suspension, 1.0 hr, read-out: plasma Average): 0.0253 µg/mL
concentration at 3 h [1, 5]: 0.0244 µg/mL
concentration at 3 h [1, 6]: 0.0284 µg/mL
concentration at 6 h [1, 5]: 0.0231 µg/mL
concentration at 6 h [1, 6]: 0.022 µg/mL
concentration at 24 h [1, 5]: 0.0123 µg/mL
concentration at 24 h [1, 6]: 0.00996 µg/mL
concentration at 48 h [1, 5]: 0.00363 µg/mL
concentration at 48 h [1, 6]: 0.00269 µg/mL
concentration at 72 h [1, 5]: 0.00165 µg/mL
concentration at 72 h [1, 6]: 0.00183 µg/mL
AUC(0-t) [1, 7]: 0.864 ± 0.069 µg·h/mL
Tmax ([1]; New Zealand White, rabbit, sc, 5 mg/kg, subcutaneous 5 mg/kg/dose, suspension, read-out: tmax): 0.25 h
Tmax ([1]; New Zealand White, rabbit, sc, 5 mg/kg, subcutaneous administration, suspension, read-out: Mean plasma Tmax (converted)): 0.25 h
AUC(0-inf) [1, 7]: 1.2 µg·h/mL
Cmax [1, 7]: 0.395 ± 0.17 µg/mL
MRT last [1, 7]: 1.58 h
half-life [1, 7]: 2.12 h
concentration at 0.25 hr ([1]; New Zealand White, rabbit, subcutaneous, 5 mg/kg/dose, subcutaneous 5 mg/kg/dose, suspension, 0.25 hr, read-out: plasma Average): 0.395 µg/mL
concentration at 0.5 hr [1, 8]: 0.337 µg/mL
concentration at 0.5 hr [1, 9]: 0.272 µg/mL
concentration at 1 hr ([1]; New Zealand White, rabbit, subcutaneous, 5 mg/kg/dose, subcutaneous 5 mg/kg/dose, suspension, 1.0 hr, read-out: plasma Average): 0.295 µg/mL
concentration at 1 hr ([1]; New Zealand White, rabbit, subcutaneous, 5 mg/kg/dose, subcutaneous 5 mg/kg/dose, suspension, 1.0 hr, read-out: plasma Conc., individual rabbit): 0.3 µg/mL
concentration at 2 hr [1, 8]: 0.206 µg/mL
concentration at 2 hr [1, 9]: 0.194 µg/mL
concentration at 4 hr [1, 8]: 0.11 µg/mL
concentration at 4 hr [1, 9]: 0.111 µg/mL
Dose normalized AUClast [1, 10]: 459 kg·ng·h/mL/mg
Dose normalized AUC∞ [1, 10]: 484 kg·ng·h/mL/mg
Dose normalized AUClast ([1]; intravitreal suspension, normalized by 1.54 mg/kg, listed as Compound 1 (free acid)): 459 ± 34.5 kg·ng·h/mL/mg
Dose normalized AUClast [1, 11]: 173 kg·ng·h/mL/mg
Dose normalized AUC∞ [1, 11]: 240 kg·ng·h/mL/mg
Dose normalized AUClast ([1]; subcutaneous suspension, normalized by 5 mg/kg, listed as Compound 1 (free acid)): 173 ± 13.8 kg·ng·h/mL/mg
SMILES: COC(=O)N[C@@H](Cc1ccccc1)C(=O)N[C@@H](Cc1ccc(NS(=O)(=O)O)cc1)c1csc(-c2cccs2)n1 [Compound 1 free acid]

ocular abnormalities [2]: No ocular abnormalities
SMILES: COC(=O)N[C@@H](Cc1ccccc1)C(=O)N[C@@H](Cc1ccc(NS(=O)(=O)O)cc1)c1csc(-c2cccs2)n1 [Compound 1]
